{"source": "patent US6635242B2", "about": "“Broad spectrum microbicidal and spermicidal compositions, devices, and methods” (The Pennsylvania State University, priority 1998, dated 2003)", "key": {"[1]": {"system": "lymphocyte-, macrophage- and dual-tropic strains of HIV-1 (IIIB, BaL, 89.6)", "experiment": "Cell-free HIV-1 inactivation (FIG. 5)", "type": "cell-based, human immunodeficiency virus", "details": "HCLB or P4-R5 indicator cells", "protocol": "Cell-free HIV-1 strain IIIB (A) was treated with N-9, C31G, or SDS, and used to infect HCLB cells. Cell-free HIV-1 strains BaL (M tropic) (B) and 89.6 (dual tropic) (C) were treated with N-9, C31G or SDS,and used to infect P4-R5 cells. Assays were conducted. Infectivity following exposure is expressed as a percentage relative to the number of β-gal-positive cells in duplicate wells infected with virus incubated in the absence of a microbicidal compound. Results shown in FIG. 5 are the average cell counts for a total of four wells per concentration in two independent experiments."}, "HSV-2 (strain 333)": {"system": "HSV-2 (strain 333)", "experiment": "HSV-2 inactivation assay (plaques on CV-1 monolayers)", "type": "cell-based, herpes simplex virus", "details": "37° C. 10 min, virus then diluted 100 fold", "protocol": "HSV-2 (strain 333) virus stocks were propagated by low multiplicity infection of African Green monkey kidney (CV-1) cells and subsequent preparation of cell-free supernatants from frozen and thawed preparations of lytically infected cultures. Virus titers were determined by assay in CV-1 cell monolayers. Virus stocks were maintained in CV-1 cell culture medium which was Dulbecco's medium supplemented with antibiotics and 10% fetal calf serum.\nFor inactivation of HSV-2, 39 μl of virus was mixed with 1 μl of a 40×concentrated solution of detergent and then incubated at 37° C. for 10 min. After inactivation, the 40 μl of virus sample was diluted to 4 ml (1:100) using cell culture medium, and 1 ml of the diluted virus was adsorbed onto CV-1 monolayers for 1 hr at 37° C. Following adsorption, monolayers were refed and incubated at 37° C., 5% CO2. Between 20 and 24 hr post infection, monolayers were fixed, stained with crystal violet and plaques counted using a dissecting microscope. The numbers in Table 1 each represent an average of 2 plates."}, "[2]": {"system": "HIV-1-infected SupT1 cells", "experiment": "Cell-associated HIV-1 infectivity (FIG. 6)", "type": "cell-based, human immunodeficiency virus", "details": "10 min at 37° C., co-culture with HCLB cells, FIG. 6(a)", "protocol": "(A) SupT1 T lymphocytes (8×10^4)infected 5 days prior with HIV-1 strain IIIB were pelleted and resuspended in new media to remove cell-free virus. After exposure to selected concentrations of each microbicide for 10 min at 37° C., the cells were diluted 1:10 and co-cultured with HCLB cells for 2 h. Following one wash with PBS to remove the infected lymphocytes, the indicator cells were cultured and assayed. Infectivity following exposure is expressed as a percentage relative to the number of β-gal-positive cells in duplicate wells infected with HIV-1 infected SupT1 cells incubated in the absence of a microbicidal compound. Results shown in FIG. 6(a) are the average cell counts for a total of four wells per concentration in two independent experiments. (B) SupT1 T lymphocytes (8×10^4) were incubated with selected concentrations of each microbicide for 10 min at 37° C., and then diluted 1:10 with new media. Following a 2 h incubation period, the cells were assessed for viability. Cell survival after treatment is expressed as the fraction of viable cells relative to the number of mock-exposed cells. Results shown in FIG. 6(b) are the average of two experiments in which triplicate wells for each concentration were assayed."}, "Bovine sperm": {"system": "Bovine sperm", "experiment": "Bovine sperm motility following detergent addition", "type": "cell-based", "design": "key to Bovine Sperm Motility Following Detergent Addition: +++: Vigorous swimming; ++/−: Many swimmers/some dead; +/−: Occasional swimmer/most dead; −: All dead", "from_the_text": "The following data represent an in vitro experiment to test the efficacy of SDS and other detergents as spermicidal agents. Frozen samples of bull semen were obtained, thawed and placed in a test tube. Aliquots were taken out and put in a separate test tube where they were mixed with detergent (SDS, C31G, N-9 or a mixture of SDS and N-9) to a final percent as listed in Tables 8 and 9 below. After mixing, the samples were immediately placed on a microscope slide and visually examined for sperm movement. The experiment was conducted one sample at a time so that the visual examination was conducted immediately after addition of detergent to the sample. As a result, indications in the table of complete inactivation indicate virtually instantaneous inactivation of the sperm. […] Occasional swimmers means very few, on the order of approximately 1% of the population of sperm present in the sample, indicating approximately 99% of the sperm were inactivated by the detergent."}, "[3]": {"system": "split thickness grafts of neonatal foreskin", "experiment": "SDS exposure and viability of human foreskin xenografts", "type": "in vivo", "details": "0.05% SDS, no virus; immediately and days 1, 5, 11 and 20", "protocol": "A second set of control grafts was exposed only to identical concentrations of SDS and no virus. These grafts were harvested on days 1, 5, 11 and 20 following transplantation in order to follow the viability and growth of the grafts after SDS exposure.\nBecause of concern about the potential for SDS to kill human epithelium, control experiments were performed in which split thickness grafts of neonatal foreskin were exposed to 0.05% SDS alone and then subsequently grafted. All conditions in this experiment were identical to those used in the HPV 11 infections with treated virus, except that virus was not present. SDS-exposed grafts (2 animals at each time) were harvested, fixed and sectioned immediately after exposure, and on days 1, 5, 11 and 20 after treatment. […] The original split thickness grafts were approximately 1 mm×1 mm×1 mm in size; in addition they were punctured many times with the tip of a needle in order to allow entrance of the HPV 11 and/or the SDS into the epithelial layers. Although it is possible that some epithelial cells may have been damaged or killed during SDS exposure, damage was minimal and epithelial growth in the grafts was normal."}}, "data": [{"smiles": "CCCCCCCCCCCCOS(=O)(=O)[O-].[Na+]", "note": "[SDS, Sodium dodecyl sulfate]", "values": [{"measurement": "inactivation of cell-free HIV-1 strains IIIB, BaL and 89.6 (infectivity, β-gal-positive cells)", "setting": "[1]", "value": "inactivated"}, {"measurement": "Plaques/Plate (5 experiments)", "setting": "HSV-2 (strain 333); 1 × 10^−1 % SDS during treatment", "value": "0/0/0/0/0"}, {"measurement": "Plaques/Plate (5 experiments)", "setting": "HSV-2 (strain 333); 1.25 × 10^−2 % SDS during treatment", "value": "0/0/0/0/0"}, {"measurement": "Plaques/Plate (5 experiments)", "setting": "HSV-2 (strain 333); 2.5 × 10^−2 % SDS during treatment", "value": "0/0/0/0/0"}, {"measurement": "Plaques/Plate (5 experiments)", "setting": "HSV-2 (strain 333); 2.5 × 10^−3 % SDS during treatment", "value": "28/54/322/145/104"}, {"measurement": "Plaques/Plate (5 experiments)", "setting": "HSV-2 (strain 333); 5 × 10^−2 % SDS during treatment", "value": "0/0/0/0/0"}, {"measurement": "cell-associated infectivity of HIV-1-infected SupT1 cells", "setting": "[2]", "value": "can reduce the cell-associated infectivity"}, {"measurement": "Bovine Sperm Motility Following Detergent Addition", "setting": "Bovine sperm; Table 8, 0.0125% detergent", "value": "+/−"}, {"measurement": "timing of sperm inactivation", "setting": "Bovine sperm; Table 8, 0.0125% detergent, delayed = approximately 10 minutes", "value": "(delayed)"}, {"measurement": "Bovine Sperm Motility Following Detergent Addition", "setting": "Bovine sperm; Table 8, 0.025% detergent", "value": "−"}, {"measurement": "Bovine Sperm Motility Following Detergent Addition", "setting": "Bovine sperm; Table 8, 0.5% detergent", "value": "−"}, {"measurement": "Bovine Sperm Motility Following Detergent Addition", "setting": "Bovine sperm; Table 8, 1% detergent", "value": "−"}, {"measurement": "Bovine Sperm Motility Following Detergent Addition", "setting": "Bovine sperm; Table 8, 2% detergent", "value": "−"}, {"measurement": "Bovine Sperm Motility Following Detergent Addition", "setting": "Bovine sperm; Table 9, 0.125% detergent", "value": "++/−"}, {"measurement": "Bovine Sperm Motility Following Detergent Addition", "setting": "Bovine sperm; Table 9, 0.25% detergent", "value": "++/−"}, {"measurement": "Bovine Sperm Motility Following Detergent Addition", "setting": "Bovine sperm; Table 9, 0.5% detergent", "value": "++/−"}, {"measurement": "Bovine Sperm Motility Following Detergent Addition", "setting": "Bovine sperm; Table 9, 1% detergent", "value": "++/−"}, {"measurement": "Bovine Sperm Motility Following Detergent Addition", "setting": "Bovine sperm; Table 9, 2% detergent", "value": "+/−"}, {"measurement": "viability of grafts exposed to SDS alone (histology)", "setting": "[3]", "value": "fully viable epithelium on all days and no apparent necrosis"}]}]}
